In article PMC7270110, “Labeled oxytocin administered via the intranasal route reaches the brain in rhesus macaques” (Nature Communications, 2020):

Assay: Brain tissue concentration of endogenous OT (d0OT) by LC-MS/MS (terminal experiment)
Format: in vivo, rhesus macaques (Macaca mulatta)
Design: key: ND: not detected; +: detected but not quantifiable
Details: for Concentrations of endogenous brain oxytocin (OT): molarity calculated for extracellular fluid volume; for BRAIN OT concentration (endogenous): LC-MS/MS
Method: Monkeys were divided into three groups, each with two monkeys; each group received the following in a terminal study at the 5th week: Group 1 (Monkeys ID# 1 and ID# 5) received 40 IU of d5OT IN, Group 2 received 80 IU of d5OT IN (Monkeys ID# 2 and ID# 4) and Group 3 received 80 IU of d5OT IV (Monkeys ID# 3 and ID# 6). Animals were perfused on average, 140 ± 7 (mean ± SD) min after d5OT administration (range = 135–149 min) (Table 4). Plasma and CSF were drawn just before administration of d5OT, at the midpoint between d5OT administration and perfusion (~60 min post-d5OT administration), and just before perfusion.
Brain tissue distribution of d5OT, as well as the endogenous concentrations of OT (d0OT), were measured in the following 12 brain regions: cerebellum, brainstem, striatum, amygdala, thalamus, visual cortex, insular cortex, hypothalamus, hippocampus, mPFC (Brodmann areas 32,25,24), dPFC (Brodmann areas 46,9,10), and OFC (Brodmann areas 14,13,12) (Tables 1, 2 and 3).
Brain tissue sample preparation: Samples (~1.5 mg per sample) were individually weighed and placed into 12 mm × 75 mm glass tubes containing 1.5 ml ice-cold 1 M acetic acid and 30 µl of OT-d10 internal standard. Tissues were homogenized on ice and the resulting homogenates were poured into individual 15 ml polystyrene tubes. The original glass tube was rinsed with 1 ml acetonitrile, and this rinse was added to the appropriate 15 ml polystyrene tube containing the homogenate. After all homogenizations were complete, 3 ml acetonitrile was added to each tube and extraction proceeded, as described for the plasma and CSF samples.
LC–MS/MS instrument parameters: Microtiter plates were prepared, as described above, and loaded onto a SIL-30ACMP autosampler set at 4 °C (Shimadzu). Forty microliters of each standard, QC or sample were injected onto an ACE Excel 2 C18-PFP 50 mm × 2.1 mm column (Advanced Chromatography Technologies, LTD, Aberdeen, Scotland) at 50 °C using reversed-phase chromatography. Mobile phase A was 0.1% formic acid in water and mobile phase B was 0.1% formic acid in ACN. The LC time gradient was created using two Nexera LC-30AD pumps (Shimadzu) running at 0.5 ml/min. Chromatography for serum and CSF samples began at 10% B and ended at 16% B at 3.6 min. One minute at 60% B was then required to wash the column, and the pumps re-equilibrated at 10% B for an additional 1.7 min (total run time ~6 min). Outside of the 1.55–3.55 min window during which OT eluted, a divert valve sent the LC effluent to waste.
Heated electrospray […] in positive mode, with scheduled multiple reaction monitoring (MRM) on a Shimadzu LCMS-8050, was used for detection of OT. The interface temperature was 270 °C and heat block temperature was 170 °C. Gas was supplied by a Peak Genius 1051 nitrogen and air generator (Peak Scientific, Inchinnan, UK). Nitrogen gas was used for nebulizing (1 L/min) and drying (8.2 L/min), while air was used for heating (7.8 L/min). A capillary B needle was used in the interface. Needle protrusion was set to 1.25 mm and probe distance was set to 1.0 mm; both were determined empirically. Argon (Airgas, Radnor, PA) was used for the collision-induced dissociation at 330 kPa. The MS/MS conditions for OT were optimized using the automated MRM optimization procedure in LabSolutions software (Shimadzu). We collected two MRM transitions each, for d0OT (1007.40 > 723.40 and 1007.40 > 285.30), d5OT (1012.00 > 723.40 and 1012.00 > 290.35), and d10OT (1017.70 > 723.35 and 1017.70 > 295.40); the first transition listed in each case was used for quantitation, while the second was used as a reference ion. Retention times for d0OT, d5OT, and d10OT were 3.290, 3.270, and 3.253 min, respectively.
The sensitivities of each assay within the method were determined by the lowest and highest concentration calibrators in the calibration curve. The lower limit of quantitation (LLOQ) for d0OT was 10 pg/ml (4 pg/col); the LLOQ for d5OT was 100 pg/ml (40 pg/col). […]

SMILES: CC[C@H](C)[C@@H]1NC(=O)[C@H](Cc2ccc(O)cc2)NC(=O)[C@@H](N)CSSC[C@@H](C(=O)N2CCC[C@H]2C(=O)N[C@@H](CC(C)C)C(=O)NCC(N)=O)NC(=O)[C@H](CC(N)=O)NC(=O)[C@H](CCC(N)=O)NC1=O [OT, oxytocin]
- Concentrations of endogenous brain oxytocin (OT) (Amygdala, 40 IN, monkey #5 (F)): 2.14e-07 M
- Concentrations of endogenous brain oxytocin (OT) (Amygdala, 80 IN, monkey #2 (M)): 3.2e-08 M
- Concentrations of endogenous brain oxytocin (OT) (Amygdala, 80 IN, monkey #4 (M)): 1.31e-07 M
- Concentrations of endogenous brain oxytocin (OT) (Amygdala, 80 IV, monkey #3 (F)): 2.5e-08 M
- Concentrations of endogenous brain oxytocin (OT) (Amygdala, 80 IV, monkey #6 (F)): 4e-08 M
- BRAIN OT concentration (endogenous) (Amygdala, after d5OT 40 IU IN, monkey #5 (F), perfused 138 min post-dose): 39.11 pg/mg
- BRAIN OT concentration (endogenous) (Amygdala, after d5OT 80 IU IN, monkey #2 (M), perfused 136 min post-dose): 5.82 pg/mg
- BRAIN OT concentration (endogenous) (Amygdala, after d5OT 80 IU IN, monkey #4 (M), perfused 135 min post-dose): 23.97 pg/mg
- BRAIN OT concentration (endogenous) (Amygdala, after d5OT 80 IU IV, monkey #3 (F), perfused 149 min post-dose): 4.63 pg/mg
- BRAIN OT concentration (endogenous) (Amygdala, after d5OT 80 IU IV, monkey #6 (F), perfused 135 min post-dose): 7.26 pg/mg
- Concentrations of endogenous brain oxytocin (OT) (Brainstem, 40 IN, monkey #1 (F)): 4e-08 M
- Concentrations of endogenous brain oxytocin (OT) (Brainstem, 40 IN, monkey #5 (F)): 5.1e-08 M
- Concentrations of endogenous brain oxytocin (OT) (Brainstem, 80 IN, monkey #2 (M)): 2.8e-08 M
- Concentrations of endogenous brain oxytocin (OT) (Brainstem, 80 IN, monkey #4 (M)): 1.9e-08 M
- Concentrations of endogenous brain oxytocin (OT) (Brainstem, 80 IV, monkey #3 (F)): 6e-08 M
- Concentrations of endogenous brain oxytocin (OT) (Brainstem, 80 IV, monkey #6 (F)): 2e-08 M
- BRAIN OT concentration (endogenous) (Brainstem, after d5OT 40 IU IN, monkey #1 (F), perfused 148 min post-dose): 7.27 pg/mg
- BRAIN OT concentration (endogenous) (Brainstem, after d5OT 40 IU IN, monkey #5 (F), perfused 138 min post-dose): 9.34 pg/mg
- BRAIN OT concentration (endogenous) (Brainstem, after d5OT 80 IU IN, monkey #2 (M), perfused 136 min post-dose): 5.11 pg/mg
- BRAIN OT concentration (endogenous) (Brainstem, after d5OT 80 IU IN, monkey #4 (M), perfused 135 min post-dose): 3.55 pg/mg
- BRAIN OT concentration (endogenous) (Brainstem, after d5OT 80 IU IV, monkey #3 (F), perfused 149 min post-dose): 10.93 pg/mg
- BRAIN OT concentration (endogenous) (Brainstem, after d5OT 80 IU IV, monkey #6 (F), perfused 135 min post-dose): 3.58 pg/mg
- Concentrations of endogenous brain oxytocin (OT) (Cerebellum, 40 IN, monkey #1 (F)): 1.2e-08 M
- Concentrations of endogenous brain oxytocin (OT) (Cerebellum, 40 IN, monkey #5 (F)): <1e-09 M
- Concentrations of endogenous brain oxytocin (OT) (Cerebellum, 80 IN, monkey #4 (M)): <1e-09 M
- Concentrations of endogenous brain oxytocin (OT) (Cerebellum, 80 IV, monkey #6 (F)): +
- BRAIN OT concentration (endogenous) (Cerebellum, after d5OT 40 IU IN, monkey #1 (F), perfused 148 min post-dose): 2.16 pg/mg
- BRAIN OT concentration (endogenous) (Cerebellum, after d5OT 40 IU IN, monkey #5 (F), perfused 138 min post-dose): 0.12 pg/mg
- BRAIN OT concentration (endogenous) (Cerebellum, after d5OT 80 IU IN, monkey #4 (M), perfused 135 min post-dose): 0.06 pg/mg
- BRAIN OT concentration (endogenous) (Cerebellum, after d5OT 80 IU IV, monkey #6 (F), perfused 135 min post-dose): +
- Concentrations of endogenous brain oxytocin (OT) (Hippocampus, 40 IN, monkey #1 (F)): 5e-09 M
- Concentrations of endogenous brain oxytocin (OT) (Hippocampus, 40 IN, monkey #5 (F)): 5e-09 M
- Concentrations of endogenous brain oxytocin (OT) (Hippocampus, 80 IN, monkey #2 (M)): 1.5e-08 M
- Concentrations of endogenous brain oxytocin (OT) (Hippocampus, 80 IN, monkey #4 (M)): 1.5e-08 M
- Concentrations of endogenous brain oxytocin (OT) (Hippocampus, 80 IV, monkey #3 (F)): 5e-09 M
- Concentrations of endogenous brain oxytocin (OT) (Hippocampus, 80 IV, monkey #6 (F)): 5e-09 M
- BRAIN OT concentration (endogenous) (Hippocampus, after d5OT 40 IU IN, monkey #1 (F), perfused 148 min post-dose): 0.99 pg/mg
- BRAIN OT concentration (endogenous) (Hippocampus, after d5OT 40 IU IN, monkey #5 (F), perfused 138 min post-dose): 0.99 pg/mg
- BRAIN OT concentration (endogenous) (Hippocampus, after d5OT 80 IU IN, monkey #2 (M), perfused 136 min post-dose): 2.83 pg/mg
- BRAIN OT concentration (endogenous) (Hippocampus, after d5OT 80 IU IV, monkey #3 (F), perfused 149 min post-dose): 0.99 pg/mg
- BRAIN OT concentration (endogenous) (Hypothalamus, after d5OT 40 IU IN, monkey #1 (F), perfused 148 min post-dose): 2186.74 pg/mg
- BRAIN OT concentration (endogenous) (Hypothalamus, after d5OT 80 IU IN, monkey #2 (M), perfused 136 min post-dose): 943.27 pg/mg
- BRAIN OT concentration (endogenous) (Hypothalamus, after d5OT 80 IU IV, monkey #3 (F), perfused 149 min post-dose): 1491.96 pg/mg
- Concentrations of endogenous brain oxytocin (OT) (Insular Cortex, 40 IN, monkey #5 (F)): 2e-09 M
- Concentrations of endogenous brain oxytocin (OT) (Insular Cortex, 80 IN, monkey #4 (M)): <1e-09 M
- Concentrations of endogenous brain oxytocin (OT) (Insular Cortex, 80 IV, monkey #3 (F)): 1e-09 M
